Laboratory results: patent US11020399B2, “Intermediates useful in the synthesis of compounds as modulators of protein kinases” (Rhizen Pharmaceuticals SA, priority 2011, dated 2021)

Key:
Format in all cases: biochemical
PI3kα = PI3kα (Homo sapiens, UniProt P42336); test: Fluorescent (HTRF) determination of PI3 kinase enzyme activity, PI3Kα; conditions: 1 uM
How it was run: (§1)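 Compounds tested at 1 μM on α and β isoforms and at 0.3 or 0.1 μM on γ and δ, with percent inhibition from blank and enzyme controls, plus IC50 fits. Room-temperature reaction: 10 min enzyme–compound preincubation in MgCl2/DTT buffer with 1.38 μM PIP2, then 30 min after 400 μM ATP addition; PIP3 read by HTRF (665/620 nm).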

PI3kβ = PI3kβ (Homo sapiens, UniProt P42338); test: Fluorescent (HTRF) determination of PI3 kinase enzyme activity, PI3Kβ; conditions: 1 uM
How it was run: as §1

PI3kγ = PI3kγ (Homo sapiens, UniProt P48736); test: Fluorescent (HTRF) determination of PI3 kinase enzyme activity, PI3Kγ; conditions: for inhibition at 0.3 µM: 300 nM (Examples 1-59)
How it was run: as §1

PI3kδ = PI3kδ (Homo sapiens, UniProt O00329); test: Fluorescent (HTRF) determination of PI3 kinase enzyme activity, PI3Kδ; conditions: for inhibition at 0.3 µM: 300 nM (Examples 1-59)
How it was run: as §1

[1] = 100 nM (Examples 60-137), 0.1 µM

Chain of PI3kα (P42336 whole entry, canonical isoform): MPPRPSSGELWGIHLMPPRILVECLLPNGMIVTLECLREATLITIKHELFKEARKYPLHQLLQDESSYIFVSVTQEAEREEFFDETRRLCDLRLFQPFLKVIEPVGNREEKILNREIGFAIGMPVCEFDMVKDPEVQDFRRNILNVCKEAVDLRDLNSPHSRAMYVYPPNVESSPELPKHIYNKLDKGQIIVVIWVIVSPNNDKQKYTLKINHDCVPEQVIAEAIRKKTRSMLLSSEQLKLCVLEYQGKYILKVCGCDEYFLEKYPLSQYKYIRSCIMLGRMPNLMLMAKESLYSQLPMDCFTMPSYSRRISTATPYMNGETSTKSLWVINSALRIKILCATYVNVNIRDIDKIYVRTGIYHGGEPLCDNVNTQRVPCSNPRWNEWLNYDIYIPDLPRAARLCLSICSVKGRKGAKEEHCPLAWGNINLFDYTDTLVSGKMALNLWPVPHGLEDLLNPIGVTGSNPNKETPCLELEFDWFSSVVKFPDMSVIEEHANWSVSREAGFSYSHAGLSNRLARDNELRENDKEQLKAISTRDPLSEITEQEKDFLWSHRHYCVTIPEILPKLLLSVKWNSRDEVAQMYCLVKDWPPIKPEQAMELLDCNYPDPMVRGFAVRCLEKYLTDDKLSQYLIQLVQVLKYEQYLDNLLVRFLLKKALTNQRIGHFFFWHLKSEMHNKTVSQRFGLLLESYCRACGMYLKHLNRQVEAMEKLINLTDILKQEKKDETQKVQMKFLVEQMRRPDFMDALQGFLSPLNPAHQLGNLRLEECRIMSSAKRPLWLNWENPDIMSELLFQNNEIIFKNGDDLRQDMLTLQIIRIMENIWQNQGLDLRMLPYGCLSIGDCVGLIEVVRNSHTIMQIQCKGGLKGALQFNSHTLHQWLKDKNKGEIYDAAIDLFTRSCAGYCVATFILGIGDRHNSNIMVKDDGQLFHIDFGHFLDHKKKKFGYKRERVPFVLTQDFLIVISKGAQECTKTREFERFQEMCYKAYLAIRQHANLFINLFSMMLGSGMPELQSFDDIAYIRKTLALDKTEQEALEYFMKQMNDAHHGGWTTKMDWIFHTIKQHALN
Chain of PI3kα (P27986 whole entry partner, canonical isoform): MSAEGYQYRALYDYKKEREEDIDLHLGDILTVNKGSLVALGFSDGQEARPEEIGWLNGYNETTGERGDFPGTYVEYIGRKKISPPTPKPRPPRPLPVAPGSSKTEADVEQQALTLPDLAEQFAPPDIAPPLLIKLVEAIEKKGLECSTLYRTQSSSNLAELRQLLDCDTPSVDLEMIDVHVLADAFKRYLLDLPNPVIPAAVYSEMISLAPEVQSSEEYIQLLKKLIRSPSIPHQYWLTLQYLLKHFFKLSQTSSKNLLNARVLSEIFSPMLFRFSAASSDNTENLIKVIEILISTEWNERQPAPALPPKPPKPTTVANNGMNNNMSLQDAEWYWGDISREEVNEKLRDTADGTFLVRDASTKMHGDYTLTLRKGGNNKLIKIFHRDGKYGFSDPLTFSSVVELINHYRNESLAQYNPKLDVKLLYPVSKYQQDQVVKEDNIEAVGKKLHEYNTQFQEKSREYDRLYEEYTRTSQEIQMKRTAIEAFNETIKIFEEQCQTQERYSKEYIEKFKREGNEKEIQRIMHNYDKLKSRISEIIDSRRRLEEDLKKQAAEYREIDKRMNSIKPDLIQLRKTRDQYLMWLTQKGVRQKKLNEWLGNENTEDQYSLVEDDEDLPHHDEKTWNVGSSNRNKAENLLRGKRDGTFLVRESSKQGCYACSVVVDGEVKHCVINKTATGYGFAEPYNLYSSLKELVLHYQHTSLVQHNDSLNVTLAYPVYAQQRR
Chain of PI3kγ (P48736 whole entry): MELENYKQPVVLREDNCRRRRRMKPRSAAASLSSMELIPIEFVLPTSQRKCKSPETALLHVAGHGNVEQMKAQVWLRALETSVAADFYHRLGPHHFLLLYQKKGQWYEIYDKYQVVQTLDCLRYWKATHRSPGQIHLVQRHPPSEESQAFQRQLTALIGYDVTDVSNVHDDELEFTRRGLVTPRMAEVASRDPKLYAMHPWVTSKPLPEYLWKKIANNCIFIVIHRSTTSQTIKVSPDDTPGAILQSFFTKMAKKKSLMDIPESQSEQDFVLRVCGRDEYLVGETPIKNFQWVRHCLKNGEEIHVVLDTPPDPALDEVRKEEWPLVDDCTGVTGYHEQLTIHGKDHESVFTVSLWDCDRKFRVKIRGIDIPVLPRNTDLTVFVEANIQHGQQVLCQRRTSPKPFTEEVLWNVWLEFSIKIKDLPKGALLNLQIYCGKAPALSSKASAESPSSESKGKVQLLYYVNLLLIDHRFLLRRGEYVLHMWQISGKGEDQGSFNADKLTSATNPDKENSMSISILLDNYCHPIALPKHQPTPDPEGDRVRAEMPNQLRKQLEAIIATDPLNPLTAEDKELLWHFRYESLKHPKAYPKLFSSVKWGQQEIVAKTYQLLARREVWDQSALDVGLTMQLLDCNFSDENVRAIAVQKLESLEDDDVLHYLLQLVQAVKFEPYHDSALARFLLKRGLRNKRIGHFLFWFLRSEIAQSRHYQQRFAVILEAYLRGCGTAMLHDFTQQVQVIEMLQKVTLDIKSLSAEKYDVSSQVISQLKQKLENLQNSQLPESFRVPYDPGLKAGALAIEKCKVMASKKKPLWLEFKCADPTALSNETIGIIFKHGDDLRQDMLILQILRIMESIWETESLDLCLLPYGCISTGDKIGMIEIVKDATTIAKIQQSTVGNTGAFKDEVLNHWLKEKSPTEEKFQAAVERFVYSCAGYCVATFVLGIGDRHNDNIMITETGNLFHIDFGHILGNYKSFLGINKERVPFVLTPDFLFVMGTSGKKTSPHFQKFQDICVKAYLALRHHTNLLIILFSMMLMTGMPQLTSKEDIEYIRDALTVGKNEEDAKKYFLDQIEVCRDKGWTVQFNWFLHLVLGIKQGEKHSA
Chain of PI3kβ (P42338 whole entry): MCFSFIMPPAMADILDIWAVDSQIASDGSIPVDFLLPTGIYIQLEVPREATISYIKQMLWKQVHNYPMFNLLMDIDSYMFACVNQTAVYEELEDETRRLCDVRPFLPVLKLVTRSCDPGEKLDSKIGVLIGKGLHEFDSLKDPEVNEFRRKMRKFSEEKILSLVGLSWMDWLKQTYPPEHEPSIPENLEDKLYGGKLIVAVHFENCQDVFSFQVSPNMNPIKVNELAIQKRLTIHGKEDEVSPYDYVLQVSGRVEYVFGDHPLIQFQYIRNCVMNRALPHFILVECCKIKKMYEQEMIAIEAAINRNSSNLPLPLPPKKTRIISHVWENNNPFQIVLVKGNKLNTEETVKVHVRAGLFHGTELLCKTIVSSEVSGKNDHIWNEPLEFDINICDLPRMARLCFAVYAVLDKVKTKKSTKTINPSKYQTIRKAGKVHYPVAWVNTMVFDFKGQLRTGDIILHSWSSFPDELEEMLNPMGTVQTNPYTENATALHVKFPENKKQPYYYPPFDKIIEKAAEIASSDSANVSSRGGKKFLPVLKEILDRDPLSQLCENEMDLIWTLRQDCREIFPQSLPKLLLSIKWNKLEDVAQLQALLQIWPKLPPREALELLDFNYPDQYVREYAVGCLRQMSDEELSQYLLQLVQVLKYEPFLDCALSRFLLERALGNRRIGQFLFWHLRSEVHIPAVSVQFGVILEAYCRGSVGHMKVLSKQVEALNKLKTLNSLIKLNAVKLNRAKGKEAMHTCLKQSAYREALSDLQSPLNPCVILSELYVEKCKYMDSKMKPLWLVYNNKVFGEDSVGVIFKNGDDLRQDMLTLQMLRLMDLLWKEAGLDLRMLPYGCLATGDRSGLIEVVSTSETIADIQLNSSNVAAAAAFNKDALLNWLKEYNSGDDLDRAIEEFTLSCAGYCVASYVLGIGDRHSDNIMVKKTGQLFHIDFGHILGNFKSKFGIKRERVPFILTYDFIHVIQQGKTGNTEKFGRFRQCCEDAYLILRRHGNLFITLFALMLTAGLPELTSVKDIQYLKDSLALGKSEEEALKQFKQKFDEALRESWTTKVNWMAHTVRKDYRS
Chain of PI3kβ (P27986 whole entry partner): as the sequence (P27986 whole entry partner, canonical isoform) above
Chain of PI3kδ (O00329 whole entry): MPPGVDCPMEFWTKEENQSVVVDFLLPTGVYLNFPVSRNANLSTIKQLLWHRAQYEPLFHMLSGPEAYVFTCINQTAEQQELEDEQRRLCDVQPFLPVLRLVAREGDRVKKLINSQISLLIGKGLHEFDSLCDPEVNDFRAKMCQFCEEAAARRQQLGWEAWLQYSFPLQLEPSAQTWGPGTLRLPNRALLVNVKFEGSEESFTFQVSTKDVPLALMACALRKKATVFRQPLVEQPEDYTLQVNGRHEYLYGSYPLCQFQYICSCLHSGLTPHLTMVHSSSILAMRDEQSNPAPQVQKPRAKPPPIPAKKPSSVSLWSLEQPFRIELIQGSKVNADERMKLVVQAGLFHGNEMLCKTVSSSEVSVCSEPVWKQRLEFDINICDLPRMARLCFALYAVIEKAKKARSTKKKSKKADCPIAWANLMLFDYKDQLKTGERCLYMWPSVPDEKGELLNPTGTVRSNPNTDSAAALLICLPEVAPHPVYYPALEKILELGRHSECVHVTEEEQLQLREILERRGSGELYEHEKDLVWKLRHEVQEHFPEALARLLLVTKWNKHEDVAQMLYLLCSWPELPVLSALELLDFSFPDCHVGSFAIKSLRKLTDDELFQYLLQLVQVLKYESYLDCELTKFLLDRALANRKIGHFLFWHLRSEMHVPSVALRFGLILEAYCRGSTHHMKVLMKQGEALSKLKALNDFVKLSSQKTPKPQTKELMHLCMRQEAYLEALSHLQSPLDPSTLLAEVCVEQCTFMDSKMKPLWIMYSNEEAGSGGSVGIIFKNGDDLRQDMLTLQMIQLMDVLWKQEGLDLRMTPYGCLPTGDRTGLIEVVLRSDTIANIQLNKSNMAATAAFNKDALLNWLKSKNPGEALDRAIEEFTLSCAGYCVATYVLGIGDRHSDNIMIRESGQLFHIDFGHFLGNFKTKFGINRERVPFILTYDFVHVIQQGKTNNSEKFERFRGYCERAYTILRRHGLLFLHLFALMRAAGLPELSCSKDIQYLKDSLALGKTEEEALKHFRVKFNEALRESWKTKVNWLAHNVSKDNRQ
Chain of PI3kδ (P27986 whole entry partner): as the sequence (P27986 whole entry partner, canonical isoform) above

SMILES	inhibition at 1 µM (PI3kα) [%]	inhibition at 1 µM (PI3kβ) [%]	inhibition at 0.3 µM (PI3kγ) [%]	inhibition at 0.3 µM (PI3kδ) [%]	other results
CC(c1oc2cccc(F)c2c(=O)c1-c1cccc(F)c1)n1nc(-c2ccc(NCCO)c(F)c2)c2c(N)ncnc21 (centres unmarked) [Example 22, 2-(1-(4-amino-3-(3-fluoro-4-(2-hydroxyethylamino)phenyl)-1H-pyrazolo[3,4-d]pyrimidin-1-yl)ethyl)-5-fluoro-3-(3-fluorophenyl)-4H-chromen-4-one]	25 to 50	0 to 25	25 to 50	75 to 100	
CC(C)Nc1ccc(-c2nn(C(C)c3oc4cccc(F)c4c(=O)c3-c3cccc(F)c3)c3ncnc(N)c23)cc1F (centres unmarked) [Example 23, 2-(1-(4-amino-3-(3-fluoro-4-(isopropylamino)phenyl)-1H-pyrazolo[3,4-d]pyrimidin-1-yl)ethyl)-5-fluoro-3-(3-fluorophenyl)-4H-chromen-4-one]	0 to 25	25 to 50	75 to 100	75 to 100	IC50 (PI3kγ): ≤ 50 nM; IC50 (PI3kδ): 50 to 100 nM
CC(c1oc2cccc(F)c2c(=O)c1-c1cccc(F)c1)n1nc(-c2ccc(N3CCN(C)CC3)c(F)c2)c2c(N)ncnc21 (centres unmarked) [Example 27, 2-(1-(4-amino-3-(3-fluoro-4-(4-methylpiperazin-1-yl)phenyl)-1H-pyrazolo[3,4-d]pyrimidin-1-yl)ethyl)-5-fluoro-3-(3-fluorophenyl)-4H-chromen-4-one]	0 to 25	25 to 50	50 to 75	25 to 50	
CC(c1oc2cccc(F)c2c(=O)c1-c1cccc(F)c1)n1ncc2c(N(C)C)ncnc21 (centres unmarked) [Example 28, 2-(1-(4-(dimethylamino)-1H-pyrazolo[3,4-d]pyrimidin-1-yl)ethyl)-5-fluoro-3-(3-fluorophenyl)-4H-chromen-4-one]	0 to 25	25 to 50	50 to 75	50 to 75	
CC(c1oc2cccc(F)c2c(=O)c1-c1ccccc1)n1ncc2c(N)ncnc21 (centres unmarked) [Example 29, 2-(1-(4-amino-1H-pyrazolo[3,4-d]pyrimidin-1-yl)ethyl)-5-fluoro-3-phenyl-4H-chromen-4-one]	0 to 25	25 to 50	50 to 75	25 to 50	
CC(c1oc2cccc(F)c2c(=O)c1-c1ccc(F)cc1)n1ncc2c(N)ncnc21 (centres unmarked) [Example 30, 2-(1-(4-amino-1H-pyrazolo[3,4-d]pyrimidin-1-yl)ethyl)-5-fluoro-3-(4-fluorophenyl)-4H-chromen-4-one]	25 to 50	0 to 25	0 to 25	25 to 50	
CC(c1oc2cccc(F)c2c(=O)c1-c1ccc(F)cc1)n1nc(-c2ccc(OC(F)F)c(F)c2)c2c(N)ncnc21 (centres unmarked) [Example 31, 2-(1-(4-amino-3-(4-(difluoromethoxy)-3-fluorophenyl)-1H-pyrazolo[3,4-d]pyrimidin-1-yl)ethyl)-5-fluoro-3-(4-fluorophenyl)-4H-chromen-4-one]	25 to 50	25 to 50	50 to 75	50 to 75	
CC(c1oc2cccc(F)c2c(=O)c1-c1ccccc1)n1nc(-c2ccc(OC(F)F)c(F)c2)c2c(N)ncnc21 (centres unmarked) [Example 32, 2-(1-(4-amino-3-(4-(difluoromethoxy)-3-fluorophenyl)-1H-pyrazolo[3,4-d]pyrimidin-1-yl)ethyl)-5-fluoro-3-phenyl-4H-chromen-4-one]			50 to 75	0 to 25	% inhibition (PI3kα) 1 uM (PI3kα): D (D=0 to 25%); % inhibition (PI3kβ) 1 uM (PI3kβ): B (B=>50 to 75%)
Cc1nn(C(C)c2oc3cccc(F)c3c(=O)c2-c2cccc(F)c2)c2ncnc(N)c12 (centres unmarked) [Example 33, 2-(1-(4-amino-3-methyl-1H-pyrazolo[3,4-d]pyrimidin-1-yl)ethyl)-5-fluoro-3-(3-fluorophenyl)-4H-chromen-4-one]	0 to 25	25 to 50	50 to 75	50 to 75	
CCc1nn(C(C)c2oc3cccc(F)c3c(=O)c2-c2cccc(F)c2)c2ncnc(N)c12 (centres unmarked) [Example 34, 2-(1-(4-amino-3-ethyl-1H-pyrazolo[3,4-d]pyrimidin-1-yl)ethyl)-5-fluoro-3-(3-fluorophenyl)-4H-chromen-4-one]	0 to 25	25 to 50	50 to 75	50 to 75	
CC(c1oc2cccc(F)c2c(=O)c1-c1cccc(F)c1)n1nc(-c2cc3ccccc3s2)c2c(N)ncnc21 (centres unmarked) [Example 36, 2-(1-(4-amino-3-(benzo[b]thiophen-2-yl)-1H-pyrazolo[3,4-d]pyrimidin-1-yl)ethyl)-5-fluoro-3-(3-fluorophenyl)-4H-chromen-4-one]	0 to 25	50 to 75	75 to 100	25 to 50	
CC(c1oc2cccc(F)c2c(=O)c1-c1cccc(F)c1)n1nc(N2CCOCC2)c2c(N)ncnc21 (centres unmarked) [Example 37, 2-(1-(4-amino-3-morpholino-1H-pyrazolo[3,4-d]pyrimidin-1-yl)ethyl)-5-fluoro-3-(3-fluorophenyl)-4H-chromen-4-one]	0 to 25	25 to 50	50 to 75	0 to 25	
CC(c1oc2cccc(F)c2c(=O)c1-c1cccc(F)c1)n1nc(N(C)C)c2c(N)ncnc21 (centres unmarked) [Example 38, 2-(1-(4-amino-3-(dimethylamino)-1H-pyrazolo[3,4-d]pyrimidin-1-yl)ethyl)-5-fluoro-3-(3-fluorophenyl)-4H-chromen-4-one]	25 to 50	25 to 50	0 to 25	50 to 75	
CC(c1oc2cccc(F)c2c(=O)c1-c1cccc(F)c1)n1nc(N2CCCCC2)c2c(N)ncnc21 (centres unmarked) [Example 39, 2-(1-(4-amino-3-(piperidin-1-yl)-1H-pyrazolo[3,4-d]pyrimidin-1-yl)ethyl)-5-fluoro-3-(3-fluorophenyl)-4H-chromen-4-one]	25 to 50	50 to 75	0 to 25	25 to 50	
CC(C)Oc1ccc(-c2nn(C(C)c3oc4cccc(F)c4c(=O)c3-c3cccc(F)c3)c3ncnc(N)c23)cn1 (centres unmarked) [Example 40, 2-(1-(4-amino-3-(6-isopropoxypyridin-3-yl)-1H-pyrazolo[3,4-d]pyrimidin-1-yl)ethyl)-5-fluoro-3-(3-fluorophenyl)-4H-chromen-4-one]	25 to 50	50 to 75	0 to 25	50 to 75	
CSc1nn(C(C)c2oc3cccc(F)c3c(=O)c2-c2cccc(F)c2)c2ncnc(N)c12 (centres unmarked) [Example 41, 2-(1-(4-amino-3-(methylthio)-1H-pyrazolo[3,4-d]pyrimidin-1-yl)ethyl)-5-fluoro-3-(3-fluorophenyl)-4H-chromen-4-one]	25 to 50	25 to 50	50 to 75	50 to 75	
CC(c1oc2cccc(F)c2c(=O)c1-c1cccc(F)c1)n1nc(-c2ccc(OC3CN(C(c4ccccc4)c4ccccc4)C3)c(F)c2)c2c(N)ncnc21 (centres unmarked) [Example 44, 2-(1-(4-amino-3-(4-(1-benzhydrylazetidin-3-yloxy)-3-fluorophenyl)-1H-pyrazolo[3,4-d]pyrimidin-1-yl)ethyl)-5-fluoro-3-(3-fluorophenyl)-4H-chromen-4-one]	0 to 25	0 to 25	25 to 50	25 to 50	
Cc1cc(-c2nn(C(C)c3oc4cccc(F)c4c(=O)c3-c3cccc(F)c3)c3ncnc(N)c23)ccc1OC(C)C (centres unmarked) [Example 50, 2-(1-(4-amino-3-(4-isopropoxy-3-methylphenyl)-1H-pyrazolo[3,4-d]pyrimidin-1-yl)ethyl)-5-fluoro-3-(3-fluorophenyl)-4H-chromen-4-one]			50 to 75	75 to 100	% inhibition (PI3kα) 1 uM (PI3kα): D (D=0 to 25%); % inhibition (PI3kβ) 1 uM (PI3kβ): C (C=>25 to 50%)
CCC(Nc1ncnc2[nH]cnc12)c1oc2cccc(F)c2c(=O)c1-c1ccccc1 (centres unmarked) [Example 65, 2-(1-(9H-purin-6-ylamino)propyl)-5-fluoro-3-phenyl-4H-chromen-4-one]	25 to 50	25 to 50			inhibition at 0.1 µM (PI3kγ; 100 nM (Examples 60-137)): 50 to 75%; inhibition at 0.1 µM (PI3kδ; 100 nM (Examples 60-137)): 0 to 25%
CC(c1oc2cccc(F)c2c(=O)c1-c1ccc(F)cc1)n1cnc2c(N)nc(F)nc21 (centres unmarked) [Example 107, 2-(1-(6-amino-2-fluoro-9H-purin-9-yl)ethyl)-5-fluoro-3-(4-fluorophenyl)-4H-chromen-4-one]	0 to 25	25 to 50			inhibition at 0.1 µM (PI3kγ; 100 nM (Examples 60-137)): 25 to 50%; inhibition at 0.1 µM (PI3kδ; 100 nM (Examples 60-137)): 0 to 25%
CC(c1oc2cccc(F)c2c(=O)c1-c1ccc(F)cc1)n1cnc2c(N3CCOCC3)ncnc21 (centres unmarked) [Example 108, 5-fluoro-3-(4-fluorophenyl)-2-(1-(6-morpholino-9H-purin-9-yl)ethyl)-4H-chromen-4-one]	25 to 50	0 to 25			inhibition at 0.1 µM (PI3kγ; 100 nM (Examples 60-137)): 25 to 50%; inhibition at 0.1 µM (PI3kδ; 100 nM (Examples 60-137)): 25 to 50%
CC(c1oc2cccc(F)c2c(=O)c1-c1cccc(F)c1)n1cnc2c(N(C)C)ncnc21 (centres unmarked) [Example 110, 2-(1-(6-(dimethylamino)-9H-purin-9-yl)ethyl)-5-fluoro-3-(3-fluorophenyl)-4H-chromen-4-one]	0 to 25	25 to 50			IC50 (PI3kγ): 50 to 100 nM; % inhibition (PI3kγ) 100 nM (PI3kγ; [1]): B (B=>50 to 75%); IC50 (PI3kδ): ≤ 50 nM; % inhibition (PI3kδ) 100 nM (PI3kδ; [1]): A (A=>75 to 100%)
